“Also recorded” adds a separate entry of the source. Where two headings read alike, the source gives them in different places.
Assays:
[1] = system: kidney cancer cell line, UMRC; assay: Inhibition of growth of kidney cancer cell line UMRC, single agents, 7 days; type: cell-based; conditions: 7 days (FIG. 6A vs 6B)
From the text: (§1) To determine whether there is tumor type specificity of the inhibitory properties of PP2A inhibitors, retinoic acid and Trichostatin A, we measured their inhibitory effects as single agents against the GBM line U373, a breast cancer line, MCF-7 (obtained from ATCC) and a kidney cancer cell line, UMRC (UMRC obtained by Dr. Zhuang, NINDS, NIH from the Intramural Research Support Program, SAIC, National Cancer Institute, Frederick Cancer Research and Development Center).

GBM cell line U373 = assay: cells; type: cell-based, human; conditions: for Inhibition of U373 growth as single agent (in words): individual treatment, 7 days; for Concentration range of activity against U373 (in words): single agent (FIG. 5A, 5B)
Description: To identify novel therapeutic targets for the treatment of glioblastoma multiforme (GBM), cantharidin analogs were evaluated for their ability to inhibit growth of glioblastoma multiforme cells. Specifically, GBM cell line U373 was used in evaluations.
The total number of cells is counted in the triplicate cultures at each dose and in controls after 7 days and the average number of cells and the standard deviation is determined.
The amount of inhibition of GBM cell growth is expressed as the proportion of the number of cells in the experimental dishes compared to the number of cells in control dishes containing only the drug vehicle and culture medium. The average percent of control is plotted and bracketed by one standard deviation calculated from the triplicate measurements.

[2] = system: breast cancer line, MCF-7; assay: Inhibition of growth of breast cancer line MCF-7, single agents, 7 days; type: cell-based; conditions: for Inhibition of MCF-7 growth (in words): individual doses, 7 days (FIG. 6C); for Sensitivity of MCF-7 compared with U373 (in words): single agents, 7 days (FIG. 6C vs 6B)
From the text: as §1

[3] = system: white blood cell production; conditions: patients and mice; cited from earlier work
primary hepatoma = conditions: cited from earlier work
[4] = cited from earlier work; for Urinary tract toxicity (in words): in vivo
PP2A = conditions: cited from earlier work
PP1 = conditions: cited from earlier work
[5] = for weeks; cited from earlier work
GBM cell line U343 MG-A = assay: Growth of GBM cell line U343 MG-A, cell counts over 16 days; type: cell-based, human; conditions: 50 μM retinoic acid and/or 10 nM okadaic acid
Description: Finally, the GBM cell line U343 MG-A was treated with 50 μM of retinoic acid (RA) and/or 10 nM of okadaic acid (OA), a protein phosphatase-1 inhibitor.
Three cultures for each of four treatments were grown for 16 days with cell counts obtained at baseline and for each of the eight even numbered days. Log transformations were applied to the cell counts, and repeated measures of analysis of variance model used to evaluate the treatment differences over time. Pair wise treatment comparisons used Sidak's statistic to account for multiple testing.

[6] = system: brain tumor stem cells (BTSC) isolated from GBM; assay: Differentiation of cultured brain tumor stem cells treated with CNTF (GFAP expression, N-CoR localization); type: cell-based
Description: (Hughes et al. (1988)) The BTSCs cells were then assessed for GFAP expression along with subcellular N—CoR localization.

[7] = U373, 7 days exposure, estimated from graphic plots (FIG. 3), read-out: IC50, concentration that inhibited brain tumor cell proliferation by 50%
[8] = Homo sapiens, U373 MG, 168 h, read-out: IC50, concentration that inhibited brain tumor cell proliferation by 50%

CC(/C=C/C(=O)NO)=C\[C@@H](C)C(=O)c1ccc(N(C)C)cc1 [TSA, Trichostatin A]
Sensitivity of UMRC compared with U373 (in words) [1]: less sensitive | Percent of Control, Observed (GBM cell line U373; U373, TSA 0.033 μM (0.01 μg/ml) alone): 71.6 +/− 0.4% of Control | Inhibition of U373 growth as single agent (in words) (GBM cell line U373; U373): dose dependent activity | Concentration range of activity against U373 (in words) (GBM cell line U373; U373): active at nM concentrations | Inhibition of MCF-7 growth (in words) [2]: showed an inhibition in growth | Sensitivity of MCF-7 compared with U373 (in words) [2]: as sensitive as U373

O=C1OC(=O)[C@H]2[C@@H]1[C@H]1CC[C@H]2O1 [norcantharidin]
Sensitivity of UMRC compared with U373 (in words) [1]: less sensitive | White blood cell production (in words) [3]: stimulates white blood cell production | 1-year survival (primary hepatoma; 244 patients with primary hepatoma, historical controls 17%): 30% | Life span of patients with primary hepatoma (primary hepatoma; 244 patients, historical controls on standard chemotherapy 4.7 months): 11.1 months | Relative toxicity in vivo (in words) ([4]; compared among endothal thioanhydride, norcantharidin, endothal): falling in between | Urinary tract toxicity (in words) [4]: little or no urinary tract toxicity | IC50 (GBM cell line U373; [7]): 12 µM | Sensitivity of MCF-7 compared with U373 (in words) [2]: as sensitive as U373

O=C1SC(=O)[C@H]2[C@@H]1[C@@H]1CC[C@H]2O1 [endothal thioanhydride]
Sensitivity of UMRC compared with U373 (in words) [1]: less sensitive | Inhibition of PP2A activity (in words) (PP2A): inhibit the activity of PP2A | Liver toxicity (in words) ([4]; mice): toxic to the liver of mice | Inhibition of PP1 activity (in words) (PP1): to some extent | IC50 (GBM cell line U373; [7]): 2.5 µM | Inhibition of U373 growth as single agent (in words) (GBM cell line U373; U373): most potent inhibitor of GBMs in vitro; also recorded: greatest inhibition of growth | Sensitivity of MCF-7 compared with U373 (in words) [2]: as sensitive as U373

O=C(O)C1C2CCC(O2)C1C(=O)O (stereo not drawn) [endothal]
Sensitivity of UMRC compared with U373 (in words) [1]: less sensitive | Inhibition of PP2A activity (in words) (PP2A): inhibit the activity of PP2A | Inhibition of PP1 activity (in words) (PP1): to some extent | IC50 (GBM cell line U373; [8]): 15 µM | activity at 1 µM (GBM cell line U373; Homo sapiens, U373 MG, read-out: Percent of Control, U373, endothal 1 μM, 13-cis retinoic acid none): 100% | activity at 5 µM (GBM cell line U373; Homo sapiens, U373 MG, read-out: Percent of Control, U373, endothal 5 μM, 13-cis retinoic acid none): 96% | activity at 10 µM (GBM cell line U373; Homo sapiens, U373 MG, read-out: Percent of Control, U373, endothal 10 μM, 13-cis retinoic acid none): 76% | Percent of Control, Observed (GBM cell line U373; U373, END 10 uM alone): 65% | Percent of Control (GBM cell line U373; U373, endothal 10 μM, 13-cis retinoic acid none): 73% | Inhibition of U373 growth as single agent (in words) (GBM cell line U373; U373): modest inhibition of growth | Inhibition of MCF-7 growth (in words) [2]: showed an inhibition in growth | Sensitivity of MCF-7 compared with U373 (in words) [2]: as sensitive as U373

CCCC(CCC)C(=O)O [valproic acid]
Serum concentration tolerated in humans [5]: ~1000 µM | Inhibition of U373 growth as single agent (in words) (GBM cell line U373; U373): dose dependent activity | Concentration range of activity against U373 (in words) (GBM cell line U373; U373): in the mM range

CN1CCN(C(=O)C2C(C(=O)O)[C@H]3CC[C@@H]2O3)CC1 (stereo partly drawn) [compound LB-1]
IC50 (GBM cell line U373; [8]): 3 µM | activity at 1 µM (GBM cell line U373; Homo sapiens, U373 MG, read-out: Percent of Control, Observed, U373, LB-1 1 uM alone (Table 1)): 78% | Percent of Control, Observed (GBM cell line U373; U373, LB-1 1 μM alone (Table 3)): 97.9 +/− 1.0% of Control | Percent of Control, Observed (GBM cell line U373; U373, LB-1 5 μM alone): 52.5 +/− 2.9% of Control | Inhibition of U373 growth as single agent (in words) (GBM cell line U373; U373): modest inhibition of growth

CC1=C(/C=C/C(C)=C/C=C/C(C)=C/C(=O)O)C(C)(C)CCC1 [ATRA, all-trans retinoic acid]
Sensitivity of UMRC compared with U373 (in words) [1]: less sensitive | IC50 (GBM cell line U373; Homo sapiens, U373 MG, 168 h, U373, 7 days (FIG. 4A), read-out: IC50 of ATRA alone): > 50 µM | activity at 25 µM (GBM cell line U373; Homo sapiens, U373 MG, U373, ATRA 25 uM alone, read-out: Percent of Control, Observed): 77% | Inhibition of U373 growth as single agent (in words) (GBM cell line U373; U373): modest inhibition of growth | Inhibition of MCF-7 growth (in words) [2]: showed an inhibition in growth | Sensitivity of MCF-7 compared with U373 (in words) [2]: as sensitive as U373

C=C1[C@@H](O)[C@@H]2O[C@]3(CC[C@H](/C=C/[C@@H](C)[C@@H]4CC(C)=C[C@@]5(O[C@H](C[C@@](C)(O)C(=O)O)CC[C@H]5O)O4)O3)CC[C@H]2O[C@@H]1[C@@H](O)C[C@H](C)[C@H]1O[C@@]2(CCCCO2)CC[C@H]1C [okadaic acid]
Course of cell counts over time (in words) (GBM cell line U343 MG-A; 16 days): monotonically increased | Effect on cell growth (in words) (GBM cell line U343 MG-A; 16 days (FIG. 2C)): modest effect on cell growth

C[C@@]12C(=O)OC(=O)[C@]1(C)[C@H]1CC[C@@H]2O1 [cantharidin]
Inhibition of PP2A activity (in words) (PP2A): inhibit the activity of PP2A | Urinary tract toxicity (in words) [4]: toxic to the urinary tract | Inhibition of PP1 activity (in words) (PP1): to some extent

CC1=C(/C=C/C(C)=C/C=C/C(C)=C\C(=O)O)C(C)(C)CCC1 [Cis-RA, 13-cis retinoic acid]
Percent of Control, Observed (GBM cell line U373; U373, Cis-RA 50 μM alone): 93.3 +/− 2.2% of Control | Inhibition of U373 growth as single agent (in words) (GBM cell line U373; U373): modest inhibition of growth

B1: CNTF: ciliary neurotrophic factor, agent shown to induce astrocytic differentiation of neural stem cells in vitro (protein, UniProt P26441 1-200, looked up)
Ciliary neurotrophic factor: MAFTEHSPLTPHRRDLCSRSIWLARKIRSDLTALTESYVKHQGLNKNINLDSADGMPVASTDQWSELTEAERLQENLQAYRTFHVLLARLLEDQQVHFTPTEGDFHQAIHTLLLQVAAFAYQIEELMILLEYKIPRNEADGMPINVGDGGLFEKKLWGLKVLQELSQWTVRSIHDLRFISSHQTGIPARGSHYIANNKKM
GFAP expression in BTSC (in words) ([6]; BTSC cultured with CNTF, 2-DGE and LCMS (FIG. 2A)): began to express GFAP | Subcellular localization of N-CoR in BTSC (in words) ([6]; Western blot of cytoplasmic fraction of CNTF-treated BTSC (FIG. 2B)): translocation of N—CoR to the cytoplasm | Time of peak cytoplasmic N-CoR and GFAP expression ([6]; following CNTF stimulation): 7 days

Reference: patent US20090018142A9, “Use of phosphatases to treat tumors overexpressing N-CoR” (priority 2006, published 2009)
